US5108747A, “Stable oxpenem-3-carboxylic acids as beta-lactamase inhibitors” (Bayer Aktiengesellschaft, priority 1988, dated 1992)
“Also recorded” adds a separate entry of the source. Structures can show the parent of a compound that is named as a salt. Where two headings read alike, the source gives them in different places.

How the values were obtained:
[1] = cited from earlier work
bacteria [2] = conditions: literature; cited from earlier work
[3] = test system: isolated bacterial enzymes (β-lactamases); conditions: cited from earlier work
[4] = test system: Escherichia coli W 3110 R6K (TEM 1); experiment: agar diffusion test, Escherichia coli W 3110 R6K (TEM 1) (β-lactamase-forming); assay type: cell-based
Staph. aureus 012484/77 = experiment: agar diffusion test, Staph. aureus 012484/77 (penicillin- and cephalosporin-resistant); assay type: cell-based, Staphylococcus aureus
Description: (§1) Certain representatives are just as effective against gram-positive as against gram-negative bacteria and resistant bacteria.

[5] = test system: Escherichia coli DSM 1103; experiment: agar diffusion test, Escherichia coli DSM 1103; assay type: cell-based
Description: as §1

Staph. aureus DSM 1104 = experiment: agar diffusion test, Staph. aureus DSM 1104; assay type: cell-based, Staphylococcus aureus
Protocol: The compound IIIe designated as preferred in earlier patent applications (for example in EP 18,305) hydrolyzes in a few minutes and could never be transported efficiently by the blood vessel (pH 7.4, 37° C.) to the site of action undamaged. […] Using Staphylococcus aureus DSM 1104, only an inhibition halo of a few mm was determined in the agar diffusion test after applying 250 μg of IIIe.
as §1

bacteria [6] = experiment: antibacterial activity in vitro; assay type: cell-based
[7] = Hydrolysis half life at pH 7.4, 37° C. in aqueous phosphate buffer (UV spectroscopy; measure of the stability); assay type: physicochemical; conditions: for half-life: aqueous phosphate buffer
[8] = test system: Beta lactamase from Pseudomonas aeruginosa W; experiment: Degradation of mezlocillin by beta lactamase from Pseudomonas aeruginosa W and its prevention (agar hole test); assay type: biochemical
Protocol: (§2) Methods: the degradation of mezlocillin was determined with Streptococcus pyogenes W using the agar hole test, the sensitivity limits of which are below 1 mcg/ml.
(§3) Degradation of mezlocillin by beta lactamase and prevention of this degradation by oxapenem "O"

[9] = test system: Staphylococcus aureus 25, 455/1; experiment: Decrease in the colony-forming capacity of Staphylococcus aureus 25, 455/1 in liquid nutrient medium; assay type: cell-based; conditions: control 3.5 × 10^8
Protocol: The colony-forming capacity of the bacteria was determined by plating out the bacteria on OXOID Iso Sensitest Agar. The two methods are international standard methods.
Synergistic effect of the combination. Decrease in the colony-forming capacity of Staphylococcus aureus 25, 455/1 by the action of mezlocillin in liquid nutrient medium.

intact bacteria = conditions: antibacterial activity or synergism with ampicillin; Morin and Gorman, page 383; cited from earlier work
[10] = biological target: T1, Beta lactamase from E. coli 4787 TEM 1 (Escherichia coli, UniProt P62593); experiment: Degradation of mezlocillin by beta lactamase from E. coli 4787 TEM 1 and its prevention (agar hole test); assay type: biochemical; conditions: without oxapenem
T1 construct: preparation not described in the excerpts
Protocol: as §2, §3

similar bacteria = conditions: 25 μg applied, J. Amer. Chem. Soc. 100, 8004 (1978); cited from earlier work
[11] = biological target: cephalosporinase of E. cloacae 908 R (Enterobacter cloacae, UniProt P05364); experiment: in vitro inhibition of the cephalosporinase of E. cloacae 908 R; assay type: biochemical; conditions: relative to formiminothienamycin
Description: A particular advantage of the oxapenem-3-carboxylic acids according to the invention is that in addition to the abovementioned properties of β-lactamase inhibition they are also themselves antibacterially active per se. It is true that substances having similar properties are known, for example formiminothienamycin (Lit.: Recent Advances in the Chemistry of β-Lactam Antibiotics, ed. by G.I. Gregory, The Royal Society, London, page 279 (1981)). However, the compounds according to the invention show a more rapid, more progressive and more irreversible inhibition of the lactamases with many clinically relevant bacteria. Thus, for example, the cephalosporinase of E. cloacae 908 R is inhibited 780 times more effectively in vitro by the 2-tert-butyl-6-hydroxymethyloxapenem-3-carboxylic acid K salt according to the invention than by formiminothienamycin.

T1 sequence (P62593 24-286 limits assumed): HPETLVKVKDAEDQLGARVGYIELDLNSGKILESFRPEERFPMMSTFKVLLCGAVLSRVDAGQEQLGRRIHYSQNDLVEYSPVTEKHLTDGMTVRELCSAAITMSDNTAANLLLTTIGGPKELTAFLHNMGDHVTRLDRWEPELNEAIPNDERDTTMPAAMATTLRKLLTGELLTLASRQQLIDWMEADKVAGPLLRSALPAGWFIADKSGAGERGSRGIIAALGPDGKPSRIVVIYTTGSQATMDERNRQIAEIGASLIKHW
cephalosporinase of E. cloacae 908 R, sequence (P05364 21-381): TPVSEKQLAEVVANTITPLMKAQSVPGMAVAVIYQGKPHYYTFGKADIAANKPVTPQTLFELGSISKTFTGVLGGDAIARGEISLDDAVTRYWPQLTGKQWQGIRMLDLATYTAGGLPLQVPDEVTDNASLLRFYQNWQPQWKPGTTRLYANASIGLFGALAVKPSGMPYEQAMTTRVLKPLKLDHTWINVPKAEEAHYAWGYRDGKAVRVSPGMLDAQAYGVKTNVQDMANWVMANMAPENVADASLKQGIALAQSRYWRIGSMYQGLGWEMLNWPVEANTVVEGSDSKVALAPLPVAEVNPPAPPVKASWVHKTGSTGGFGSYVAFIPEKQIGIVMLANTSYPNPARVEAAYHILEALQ

In the case of `CCC1=C(C(=O)O)N2C(=O)C[C@H]2O1` [2-ethyl-1-oxapen-2-em-3-carboxylic acid], the “stability in aqueous medium (in words)” value ([1]; aqueous medium) is given as “far too unstable in aqueous medium for antibacterial testing”, the “antibacterial efficacy (in words)” value (bacteria [2]) is given as “virtually ineffective as an antibiotic” and the “inhibition of isolated bacterial enzymes (β-lactamases) (in words)” value [3] is given as “Only an inhibition of isolated bacterial enzymes (β-lactamases) was detectable”.

Compound `CC(C)(C)C1=C(C(=O)O)N2C(=O)C(CO)C2O1` (stereo not shown) [3-tert-butyl-6-hydroxymethyl-7-oxo-4-oxa-1-azabicyclo[3.2.0]hept-2-ene-2-carboxylic acid] has a zone of inhibition at 10 µg ([4]; Escherichia coli, read-out: inhibition halo diameter) of 29 mm, a zone of inhibition at 10 µg/disc (Staph. aureus 012484/77; Staphylococcus aureus, 012484/77, 10 μg applied, read-out: inhibition halo diameter) of 32 mm and a zone of inhibition at 10 µg/disc ([5]; DSM1103, 10 μg applied, read-out: inhibition halo diameter) of 30 mm. The zone of inhibition at 10 µg/disc (Staph. aureus DSM 1104; Staphylococcus aureus, DSM1104, 10 μg applied, read-out: inhibition halo diameter) was 30 mm.

In the case of `CC1=C(C(=O)O)N2C(=O)CC2O1` (stereo not shown) [IIIe], the “antibacterial efficacy (in words)” value (bacteria [6]) is reported as “virtually ineffective antibacterially”, the “Hydrolysis half life (in words)” value [7] is reported as “a few minutes” and the “inhibition halo (in words)” value (Staph. aureus DSM 1104; 250 μg applied) is reported as “a few mm”.

`O=C(O)[C@H]1/C(=C/CO)O[C@@H]2CC(=O)N21` [clavulanic acid] gave a Mezlocillin remaining ([8]; reaction time 0 min, with 1 mcg of inhibitor) of 100 µg/mL, a Mezlocillin remaining ([8]; reaction time 0 min, with 10 mcg of inhibitor) of 100 µg/mL and a Mezlocillin remaining ([8]; reaction time 30 min, with 1 mcg of inhibitor) of 40 µg/mL. For the same compound, the Mezlocillin remaining ([8]; reaction time 30 min, with 10 mcg of inhibitor) was 27 µg/mL, the Mezlocillin remaining ([8]; reaction time 60 min, with 1 mcg of inhibitor) was 0 µg/mL and the Mezlocillin remaining ([8]; reaction time 60 min, with 10 mcg of inhibitor) was 0 µg/mL. The “Number of colonies after an action time of 6 hrs” value ([9]; 0.1 mcg alone) was 1.0 × 10^8 N/ml.

With `CC(C)(C)C1=C(C(=O)O)N2C(=O)C[C@H]2O1` [2-tert-butyl-1-oxapen-2-em-3-carboxylic acid] the zone of inhibition at 200 µg/disc (Staph. aureus 012484/77; Staphylococcus aureus, 012484/77, 200 μg applied, read-out: inhibition halo diameter) was 47 mm, the zone of inhibition at 200 µg/disc ([5]; DSM1103, 200 μg applied, read-out: inhibition halo diameter) was 41 mm and the zone of inhibition at 200 µg/disc (Staph. aureus DSM 1104; Staphylococcus aureus, DSM1104, 200 μg applied, read-out: inhibition halo diameter) was 45 mm.

Compound `CCC1=C(C(=O)O)N2C(=O)C(C)(C)C2O1` (stereo not shown) [Compound IIIc] has a half-life [7] of 1.17 h.

For `CCC1=C(C(=O)O)N2C(=O)CC2O1` (stereo not shown) [potassium salt of 2-ethyl-1-oxapenem-3-carboxylic acid], the “testability against intact bacteria (in words)” value (intact bacteria) is given as “too unstable for testing the antibacterial activity or the synergism with ampicillin against intact bacteria; also recorded: too unstable for testing synergism with ampicillin against intact bacteria”.

`CC1=C(C(=O)O)N2C(=O)C(C)(C)C2O1` (stereo not shown) [Compound IIId] gave a half-life [7] of 0.833 h.

`CC(C)C1=C(C(=O)O)N2C(=O)C(C)(C)C2O1` (stereo not shown) [Compound IIIb] gave a half-life [7] of 2 h.

In the case of `CC1(C)S[C@@H]2[C@H](NC(=O)[C@H](NC(=O)N3CCN(S(C)(=O)=O)C3=O)c3ccccc3)C(=O)N2[C@H]1C(=O)O` [mezlocillin], the Mezlocillin remaining ([8]; reaction time 0 min, without oxapenem) is reported as 100 µg/mL, the Mezlocillin remaining ([8]; reaction time 30 min, without oxapenem) is reported as 35 µg/mL and the Mezlocillin remaining ([8]; reaction time 60 min, without oxapenem) is reported as 0 µg/mL. The Mezlocillin remaining ([10]; reaction time 0 min) was 100 µg/mL, the Mezlocillin remaining ([10]; reaction time 30 min) was 65 µg/mL and the Mezlocillin remaining ([10]; reaction time 60 min) was 43 µg/mL. For the same compound, the Mezlocillin remaining ([10]; reaction time 240 min) was 0 µg/mL and the “Number of colonies after an action time of 6 hrs” value ([9]; 2.0 mcg alone) was 1.0 × 10^6 N/ml.

With `CC1(C)S[C@@H]2[C@H](NC(=O)COc3ccccc3)C(=O)N2[C@H]1C(=O)O` [Penicillin V] the “inhibition (in words)” value ([4]; 130 μg applied) was “not inhibited”, the “inhibition (in words)” value (Staph. aureus 012484/77; 130 μg applied) was “not inhibited” and the zone of inhibition at 130 µg/disc ([5]; DSM1103, read-out: inhibition halo diameter) was 13 mm. For the same compound, the zone of inhibition at 130 µg/disc (Staph. aureus DSM 1104; Staphylococcus aureus, DSM1104, read-out: inhibition halo diameter) was 42 mm.

In the case of `C[C@@H](O)[C@H]1C(=O)N2C(C(=O)O)=C(SCCN)C[C@H]12` [thienamycin], the “stability (in words)” value ([1]; literature) is listed as “very sensitive to hydrolysis” and the inhibition halo diameter (similar bacteria) is listed as 28-41 mm.

In the case of `CC(C)(C)C1=C(C(=O)O)N2C(=O)C(CO)C2O1` (stereo not shown) [2-tert-butyl-6-hydroxymethyloxapenem-3-carboxylic acid K salt], the “inhibited times more effectively than by formiminothienamycin” value [11] is reported as 780 times.

For `CC(C)(C)C1=C(C(=O)O)N2C(=O)C(C)(C)C2O1` (stereo not shown) [Compound IIIa, 2-tert-butyl-6.6-dimethyl-1-oxaoen-2-em-3-carboxylic acid], the half-life [7] was 30 h.
